This note sets out measurements from ChEMBL document CHEMBL1201862, “PubChem BioAssay data set” (2004).

Test systems include ACHN; DMS-273; HCC 2998; HCT-15; HL-60; HT-29; IGROV-1; K562; M19-MEL; OVCAR-8; RPMI-8226; RXF 393; SF-268; SK-MEL-28; SNB-19; TK-10; U-251.
Holding throughout (assay): NCI anticancer screen, dose series, 48 h

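Growth conditions: 96-well plates. Treatment: test compound, 48 hours, 5 concentrations. Analysis: linear interpolation between bracketing concentrations; unreached endpoints set to highest concentration. The concentration for 50% growth inhibition is given as GI50.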 Activity calls are given as the source filed them. Rule as the data show it: active = GI50 up to about 1.1 µM and inactive = higher.

Turning to `COC(=O)C1Cc2c([nH]c3ccccc23)C=N1` (stereo unspecified), the GI50 was > 100 µM (inactive) in the experiment with ACHN; > 100 µM (inactive) in the experiment with DMS-273; > 100 µM (inactive) in the experiment on HCC 2998; greater than 100 µM in the experiment with HCT-15; > 100 µM (inactive) in the experiment with HL-60; > 100 µM (inactive) in the experiment with HT-29. Moreover, the GI50 in the experiment with IGROV-1 was > 100 µM (inactive); with K562, > 100 µM (inactive); in the experiment with M19-MEL, 74.8 µM (inactive); in the experiment with OVCAR-8, > 100 µM (inactive); with RPMI-8226, > 100 µM (inactive); in the experiment on RXF 393 it was > 100 µM (inactive). Moreover, the GI50 in the experiment on SF-268 is > 100 µM (inactive); with SK-MEL-28, > 100 µM (inactive); with SNB-19 it was > 100 µM (inactive); in the experiment with TK-10 it was 59.3 µM (inactive); in the experiment with U-251, > 100 µM (inactive).
In the case of `Clc1cc2nsnc2c(Cl)n1`, the GI50 with ACHN was 32.5 µM (inactive); with DMS-273 it was 36.3 µM (inactive); with HCC 2998, > 100 µM (inactive); in the experiment on HCT-15, 21.3 µM; in the experiment with HL-60 it was 14.1 µM (inactive); in the experiment on HT-29, 21.7 µM (inactive). Besides, the GI50 is 26.2 µM (inactive) in the experiment on IGROV-1; 5.41 µM (inactive) with K562; 24.7 µM (inactive) in the experiment on M19-MEL; 22.2 µM (inactive) with RPMI-8226; 26.4 µM (inactive) in the experiment with SF-268; 20.1 µM (inactive) in the experiment with SK-MEL-28. In addition, the GI50 is 19 µM (inactive) with SNB-19, 20.9 µM (inactive) with TK-10 and 20.3 µM (inactive) in the experiment on U-251.
With `COc1ccc(N(CC(=O)O)S(=O)(=O)c2ccccc2)cc1`, the GI50 with ACHN is > 100 µM (inactive); in the experiment with DMS-273 it was > 100 µM (inactive); in the experiment on HCT-15, greater than 100 µM; in the experiment on HL-60 it was > 100 µM (inactive); with HT-29, > 100 µM (inactive); in the experiment on IGROV-1, > 100 µM (inactive). The GI50 with K562, in the experiment on M19-MEL, in the experiment with OVCAR-8, in the experiment with RPMI-8226, in the experiment with RXF 393 and in the experiment with SNB-19 was > 100 µM (inactive) each time. For the same compound, the GI50 in the experiment with TK-10 and in the experiment on U-251 was > 100 µM (inactive) each time.
Regarding `Cc1cc(N(CCC#N)CCC#N)ccc1/C=C(\NC(=O)/C=C/c1ccccc1)C(=O)Nc1ccccc1Cl`, the GI50 in the experiment with ACHN was > 100 µM (inactive); in the experiment with DMS-273, > 100 µM (inactive); in the experiment with HCC 2998, > 100 µM (inactive); in the experiment on HCT-15, greater than 100 µM; with HL-60 it was > 100 µM (inactive); in the experiment on HT-29 it was > 100 µM (inactive). The GI50 in the experiment on IGROV-1, in the experiment on K562, in the experiment with M19-MEL, in the experiment with OVCAR-8, in the experiment on RPMI-8226 and in the experiment on RXF 393 was > 100 µM (inactive) throughout. Also, the GI50 is > 100 µM (inactive) in the experiment on SF-268, > 100 µM (inactive) with SK-MEL-28, > 100 µM (inactive) in the experiment with SNB-19 and 59.6 µM (inactive) in the experiment with U-251.
Regarding `COc1cc(-c2cc(O)c3cc4c(cc3n2)OCO4)cc(OC)c1OC`, the GI50 was 34.7 µM (inactive) in the experiment on ACHN; 46.2 µM (inactive) in the experiment with DMS-273; > 100 µM (inactive) in the experiment with HCC 2998; greater than 100 µM in the experiment with HCT-15; > 100 µM (inactive) in the experiment with HL-60; > 100 µM (inactive) with HT-29. In addition, the GI50 in the experiment with IGROV-1 is > 100 µM (inactive); in the experiment on K562 it was > 100 µM (inactive); in the experiment with M19-MEL, > 100 µM (inactive); in the experiment with OVCAR-8, 75.9 µM (inactive); with RPMI-8226, > 100 µM (inactive); in the experiment on SK-MEL-28 it was > 100 µM (inactive). The figures for the GI50 in the experiment on SNB-19, in the experiment on TK-10 and with U-251 were 40.3 µM (inactive), > 100 µM (inactive) and 60 µM (inactive), respectively.
With `OCCN1CCN(CCO)Cc2ccccc2OCCOc2ccccc2C1`, the GI50 in the experiment with ACHN was > 100 µM (inactive); in the experiment with DMS-273, > 100 µM (inactive); in the experiment with HCT-15, greater than 100 µM; with HT-29, 96.8 µM (inactive); with IGROV-1, > 100 µM (inactive); with K562 it was > 100 µM (inactive). In addition, the GI50 in the experiment on M19-MEL, in the experiment with OVCAR-8, in the experiment with RPMI-8226, in the experiment on RXF 393, in the experiment with SF-268 and in the experiment with SK-MEL-28 was > 100 µM (inactive) each time. The GI50 in the experiment on SNB-19, with TK-10 and in the experiment on U-251 was > 100 µM (inactive) each time.
Turning to `O=C(CCc1ccccc1)CC1OC(=O)C(Cl)=C1Cl` (stereo unspecified), the GI50 with ACHN was 20.5 µM (inactive); in the experiment with DMS-273, 22.3 µM (inactive); in the experiment with HCC 2998, 18.6 µM (inactive); with HCT-15 it was 16 µM; in the experiment on HT-29, 19.2 µM (inactive); in the experiment with IGROV-1, 22.2 µM (inactive). The GI50 with K562 was 35 µM (inactive); with M19-MEL it was 17.7 µM (inactive); in the experiment on OVCAR-8, 20 µM (inactive); in the experiment with RPMI-8226, 32.6 µM (inactive); in the experiment with RXF 393, 29.5 µM (inactive); in the experiment on SF-268, 27.5 µM (inactive). In addition, the GI50 in the experiment on SK-MEL-28 is 16.9 µM (inactive); in the experiment with SNB-19, 20.9 µM (inactive); in the experiment on TK-10 it was 33.4 µM (inactive); with U-251 it was 16.4 µM (inactive).
With `CN1Cc2cc3c(cc2-c2ccccc21)OCO3`, the GI50 in the experiment on ACHN, with DMS-273, in the experiment on HCC 2998, in the experiment on HL-60, in the experiment on HT-29 and with IGROV-1 was > 100 µM (inactive) each time. Further, the GI50 with K562, in the experiment on M19-MEL, with OVCAR-8, in the experiment with RPMI-8226, with RXF 393 and with SF-268 was > 100 µM (inactive) throughout. Besides, the GI50 in the experiment on SK-MEL-28, in the experiment on SNB-19, with TK-10 and with U-251 was > 100 µM (inactive) each time.
Regarding `N#CC1C(=O)C(=O)N(c2ccccc2)C1=O` (stereo unspecified), the GI50 in the experiment with ACHN is > 100 µM (inactive); in the experiment with DMS-273 it was > 100 µM (inactive); with HCC 2998 it was > 100 µM (inactive); in the experiment on HCT-15 it was greater than 100 µM; with HT-29, > 100 µM (inactive); in the experiment on IGROV-1, > 100 µM (inactive). Besides, the GI50 in the experiment on K562, with M19-MEL, with OVCAR-8, in the experiment with RPMI-8226, in the experiment with RXF 393 and in the experiment on SF-268 was > 100 µM (inactive) in each case. Besides, the GI50 in the experiment on SK-MEL-28, in the experiment with SNB-19, in the experiment with TK-10 and in the experiment on U-251 was > 100 µM (inactive) in each case.
On to `CC12CC3CC(C1)CC(N=[N+]=[N-])(C3)C2`, for which the GI50 in the experiment on ACHN, in the experiment with DMS-273, in the experiment on HCC 2998, in the experiment with HT-29, in the experiment on IGROV-1 and in the experiment on K562 was > 100 µM (inactive) each time. Besides, the GI50 with M19-MEL, with OVCAR-8, in the experiment with RPMI-8226, in the experiment on SK-MEL-28, in the experiment with SNB-19 and in the experiment with TK-10 was > 100 µM (inactive) in each case. For the same compound, the GI50 in the experiment with U-251 was > 100 µM (inactive).
For the compound `COc1ccc(C(=O)C(C(=O)C(=O)NC2C3CC4CC(C3)CC2C4)c2ccc(OC)cc2)cc1` (stereo unspecified), the GI50 is > 100 µM (inactive) in the experiment with ACHN; > 100 µM (inactive) in the experiment on DMS-273; > 100 µM (inactive) in the experiment with HCC 2998; greater than 100 µM with HCT-15; > 100 µM (inactive) in the experiment on HL-60; > 100 µM (inactive) in the experiment with HT-29. The GI50 in the experiment on IGROV-1, in the experiment with K562, in the experiment on M19-MEL, in the experiment on OVCAR-8, with RPMI-8226 and in the experiment on SF-268 was > 100 µM (inactive) throughout. Moreover, the GI50 with SK-MEL-28, in the experiment with SNB-19, in the experiment with TK-10 and in the experiment with U-251 was > 100 µM (inactive) throughout.
For the compound `COC(=O)c1sc(=O)n(-c2ccccc2)c1SCc1ccccc1`, the GI50 was > 100 µM (inactive) in the experiment on ACHN; > 100 µM (inactive) in the experiment on DMS-273; > 100 µM (inactive) with HCC 2998; greater than 100 µM with HCT-15; > 100 µM (inactive) in the experiment on HL-60; > 100 µM (inactive) in the experiment on HT-29. The GI50 in the experiment on IGROV-1, in the experiment on K562, in the experiment on M19-MEL, in the experiment on OVCAR-8, with RPMI-8226 and in the experiment with RXF 393 was > 100 µM (inactive) each time. Moreover, the GI50 with SK-MEL-28, with SNB-19, in the experiment on TK-10 and in the experiment on U-251 was > 100 µM (inactive) throughout.
On to `CCOC(=O)C1S/C(=N\c2ccc(Cl)cc2Cl)N=C1C` (stereo unspecified), for which the GI50 is 95.1 µM (inactive) in the experiment on ACHN; 61.1 µM (inactive) with DMS-273; > 100 µM (inactive) in the experiment on HCC 2998; greater than 100 µM in the experiment with HCT-15; 68.4 µM (inactive) with HL-60; > 100 µM (inactive) in the experiment with HT-29. In addition, the GI50 in the experiment with IGROV-1 was > 100 µM (inactive); in the experiment on K562, > 100 µM (inactive); in the experiment with M19-MEL it was 86.5 µM (inactive); with OVCAR-8, 74.6 µM (inactive); in the experiment with RXF 393, 27.5 µM (inactive); in the experiment on SF-268, > 100 µM (inactive). Besides, the GI50 was > 100 µM (inactive) in the experiment on SK-MEL-28, 47.5 µM (inactive) in the experiment with SNB-19, > 100 µM (inactive) in the experiment on TK-10 and 58.1 µM (inactive) in the experiment on U-251.
